The text below walks through data of patent publication US5137918A, “N-(2'-aminophenyl)-benzamide derivatives process for the preparation thereof and pharmaceutical compositions containing them” (priority 1986, dated 1992).

Data set [1] concerns mammary adenocarcinoma 16C tumor cells. Description: Mamma Adenocarcinoma 16C Cytotoxicity Assay. It is filed as cell-based. Particulars: ID50 ≤250 μg/mL assessed as cytostatically active. As for the experimental part:
(§1) 4-Acetamino-N-(2'-aminophenyl) benzamide was used as an example of a compound according to the present invention and compared with […] as standard, the outstanding inhibition action of which against various experimental tumors in vitro and in vivo is known. The testing was carried out in vivo with SD-rats against MNU-induced mammary adenocarcinoma and acetoxymethylmethylnitrosamine-induced (AMMN-induced) colon adenocarcinoma. The testing was carried out in vitro in the "colorimetric-cytotoxicity assay" using L1210 and mammary adenocarcinoma 16C tumor cells. In this test system, substances with ID50 values of ≤250 μg/mL are assessed as being cytostatically active.

Data set [2] concerns acetoxymethylmethylnitrosamine-induced (AMMN-induced) colon adenocarcinoma. The data set can be described thus: AMMN-induced colon adenocarcinoma in SD rats. Particulars: for antineoplastic effect (in words): 10-week treatment, 5 days per week. It is filed as in vivo, Male SD-rats. On the procedure: as §1
The activity of the compounds A, B, and C was tested in vivo against AMMN-induced colon adenocarcinoma. Male SD-rats were given 2 mg/kg/week acetoxymethylmethylnitrosamine (AMMN) intrarectally for a period of 10 weeks for tumor induction. Animals with manifest tumors were assigned randomly to the test groups.
^a Application via gastric tube, 5 days per week
The animals were examined twice daily. After the 10-week treatment period, the animals were sacrificed and a total necropsy performed. All tumors were individually measured and their volumes added to a total tumor volume.

The subject of another data set is L1210 tumor cells. The data set can be described thus: L1210 Colorimetric Cytotoxicity Assay. It is filed as cell-based. The note with it: for IC50: Mus musculus, L1210, ID50 ≤250 μg/mL assessed as cytostatically active. On the procedure: as §1
The nature of data set [3]: Pharmacokinetic experiments on rats (plasma level, AUC, half-life, bioavailability). It is filed as in vivo. On the procedure:
FIG. 1 is the AUC, rat, after administration of 4-acetamino-N-(2'-aminophenyl)benzamide. The * is intragastral administration (2 mg/kg; 10 mg/kg; 50 mg/kg). The * is intravenous administration (10 mg/kg).
In FIG. 2 the average plasma level of 4-amino-N-(2'-aminophenyl)-benzamide in rats after single administration of 10 mg/kg intragastrally (n=4).
The bioavailability of the active material according to the present invention is 100%. […] This is shown graphically in FIG. 1 of the accompanying drawings.

The nature of data set [4]: Acute intragastral toxicity (LD50), 7-day observation. It is filed as in vivo. The note with it: male mice.
The subject of data set [5] is methylnitrosurea-induced (MNU-induced) mammary adenocarcinoma. The data set can be described thus: MNU-induced mammary adenocarcinoma in SD rats. The class given is in vivo, female SD rats. As for the experimental part: FIGS. 5 and 6 show the antineoplastic effect of compounds A, B, C at equimolar doses (33 μmol/kg/day); is control; Δ is compound C (8.0 mg/kg), .smallcircle. is compound B (7.5 mg/kg), and .quadrature. is compound A (8.9 mg/kg).
as §1
The in vivo activity of 4-acetamino-N-(2'-aminophenyl)-benzamide was tested against primary mammary adenocarcinoma induced by 3 single IV administrations of methylnitrosurea on Days 50, 71, and 92 following birth in female SD rats. As soon as tumor volumes ≥0.8 cm^3 were reached, test animals were randomized and therapy was started. […] Median tumor volumes and numbers were determined weekly and compared with untreated controls.

≈ marks a conversion by molar mass, not a printed value. Entries after “also recorded” stand apart in the source; their conditions may differ.

In the case of `Nc1ccc(C(=O)Nc2ccccc2N)cc1` [Compound B, 4-Amino-N-(2'-aminophenyl)-benzamide, reference compound], the IC50 (usually the concentration that inhibits the measured activity by half) in data set [1] turned out to be 0.69 µg/mL (≈ 3.04 µM); in the data set with L1210 tumor cells, 2.78 µg/mL (≈ 12.2 µM). Besides, the “tumor growth (in words)” value in data set [2] (5.9 mg/kg/day) is listed as “arrest of tumor growth”. Further, the “relative median tumor volume T/C” value in data set [2] (5.9 mg/kg/day=26 μmol/kg/day, gastric tube, 10 weeks) was 10.6%. The “antineoplastic effect (in words)” value in data set [2] (gastric tube) is “very efficient”. Further, the half-life (commonly the time needed for the level to fall by half in the phase considered) in data set [3] (rat, in vivo, po, 10 mg/kg) was about 0.25 h.
Turning to `Nc1ccccc1NC(=O)c1ccc(NC(=O)CCO)cc1` [4-(β-hydroxypropionylamino)-N-(2'-aminophenyl)-benzamide], in data set [1], the IC50 was 0.77 µg/mL (≈ 2.57 µM).
Take `CNc1ccc(C(=O)Nc2ccccc2N)cc1` [Compound C, 4-Methylamino-N-(2'-aminophenyl)-benzamide, reference compound]: the IC50 in the data set with L1210 tumor cells is 4.04 µg/mL (≈ 16.7 µM).
For `Nc1ccccc1NC(=O)c1ccc(NC(=O)CO)cc1` [4-Glycoloylamino-N-(2'-aminophenyl)-benzamide], the IC50 in data set [1] worked out at 0.62 µg/mL (≈ 2.17 µM).
With `CC(C)C(=O)Nc1ccc(C(=O)Nc2ccccc2N)cc1` [4-isobutyrylamino-N-(2'-aminophenyl)-benzamide], the IC50 in data set [1] is 0.32 µg/mL (≈ 1.08 µM).
Take `CC(=O)Nc1ccc(C(=O)Nc2ccccc2N)cc1` [Compound A, 4-Acetamino-N-(2'-aminophenyl)-benzamide]: the “acute toxicity versus comparison standard (in words)” value in data set [4] (acute intragastral administration) is “considerably less toxic”. In addition, the LD50 (in general, the dose at which mortality reaches 50%) at 168 h in data set [4] (mouse, in vivo, po, acute intragastral, n=4, 7-day observation) came to 1600 mg/kg. For the same compound, the values for the IC50 (in data set [1]; in the data set with L1210 tumor cells) were 0.73 µg/mL (≈ 2.71 µM) and 3.75 µg/mL (≈ 13.9 µM), respectively. Also, in data set [2] (7.0 mg/kg/day), the “tumor growth (in words)” value was “completely inhibited further growth of colon carcinoma”. Moreover, the T/C (as a rule, the result in the treated group divided by that in the control group, in per cent) in data set [2] (7.0 mg/kg/day, gastric tube, 10 weeks) is on record as 11.1%; in data set [2] (11.9 mg/kg, gastric tube, 10 weeks), “about 5%”. Moreover, the “tumor growth inhibition (in words)” value in data set [2] (11.9 mg/kg) is on record as “the growth inhibition is much less”. The “antineoplastic effect (in words)” value in data set [2] (gastric tube) is “very efficient”. For the same compound, in data set [5] (33 μmol/kg/day, A 8.9, B 7.5, C 8.0 mg/kg), the “antineoplastic effect at equimolar doses (in words)” value was “shows the highest antineoplastic effect”. Further, in data set [5] (FIG. 4, 7.5, 10, 12.5 mg/kg intragastrally, 5 times/week for 5 weeks), the “tumor growth, dose dependence and inhibition (in words)” value is listed as “affects tumor growth in a dose-dependent manner with almost complete tumor growth inhibition in the highest dose group”. Moreover, in the data set with L1210 tumor cells (Table 1: L1210 and mammary adenocarcinoma 16C, versus comparison standard), the “cytostatic activity (in words)” value was “acts outstandingly cytostatically; also recorded: about the same or better as that of the comparison standard”. In data set [3] (rat, in vivo), this compound displayed a half-life of 4.2 to 4.5 h. Moreover, the “half-life time versus standard (in words)” value in data set [3] (rat, in vivo) is recorded as “longer half-life time”. Moreover, the bioavailability (in general, the share of a dose that reaches the circulation, judged against a reference dose that is usually intravenous) in data set [3] (rat, in vivo, po, 10 mg/kg) stood at 100%. In addition, the “intestinal resorption (in words)” value in data set [3] (rats) is “quickly, completely, and dosage-linearly”.
As to `Nc1ccccc1NC(=O)c1ccc(NC=O)cc1` [4-Formylamino-N-(2'-aminophenyl)-benzamide], the IC50 in data set [1] came to 0.4 µg/mL (≈ 1.57 µM).
